Test results taken from ChEMBL document CHEMBL3044907, “Sensitivity of Fusarium verticillioides isolates from rice to a novel cyanoacrylate fungicide” (Crop Prot, 2012).
≈ marks a conversion by molar mass, not a printed value.

Columns and labels:
Fusarium verticillioides [1] = test: (§1) Fungicidal activity against Fusarium verticilliodes isolate JS09 in rice seeds harvested from bakane diseased plants assessed as number of seedlings abnormally elongated or exhibiting symptoms of damping-off at 12.5 ug/ml at 30 degC incubated for 72 hr measured after 3 days under greenhouse trials (reference value: 32.6%); format: functional
Fusarium verticillioides [2] = test: as §1, with “JS02” for “JS09”, “25” for “12.5”, “24.9%)” for “32.6%)”; format: functional
Fusarium verticillioides [3] = test: as §1, with “N05” for “JS09”, “25” for “12.5”, “6.2%)” for “32.6%)”; format: functional
Fusarium verticillioides [4] = test: as §1, with “6.25” for “12.5”; format: functional
Fusarium verticillioides [5] = test: as §1, with “JS08” for “JS09”, “6.25” for “12.5”, “13.0%)” for “32.6%)”; format: functional
Fusarium verticillioides [6] = test: as §1, with “N02” for “JS09”, “6.25” for “12.5”, “41.2%)” for “32.6%)”; format: functional
Fusarium verticillioides [7] = test: as §1, with “YZ13” for “JS09”, “6.25” for “12.5”, “26.8%)” for “32.6%)”; format: functional
Fusarium verticillioides [8] = test: as §1, with “YZ12” for “JS09”, “6.25” for “12.5”, “45.8%)” for “32.6%)”; format: functional
Fusarium verticillioides [9] = test: as §1, with “YZ05” for “JS09”, “6.25” for “12.5”, “33.3%)” for “32.6%)”; format: functional
Fusarium verticillioides [10] = test: as §1, with “YZ03” for “JS09”, “6.25” for “12.5”, “21.3%)” for “32.6%)”; format: functional
Fusarium verticillioides [11] = test: as §1, with “JS04” for “JS09”, “16.2%)” for “32.6%)”; format: functional
Fusarium verticillioides [12] = test: as §1, with “JS01” for “JS09”, “32.5%)” for “32.6%)”; format: functional
Fusarium verticillioides [13] = test: as §1, with “N06” for “JS09”, “9.6%)” for “32.6%)”; format: functional
Fusarium verticillioides [14] = test: as §1, with “YZ26” for “JS09”, “49.3%)” for “32.6%)”; format: functional
Fusarium verticillioides [15] = test: as §1, with “JS07” for “JS09”, “25” for “12.5”, “33.8%)” for “32.6%)”; format: functional
Fusarium verticillioides [16] = test: as §1, with “JS06” for “JS09”, “25” for “12.5”, “25.2%)” for “32.6%)”; format: functional
Fusarium verticillioides [17] = test: as §1, with “JS07” for “JS09”, “8.33” for “12.5”, “33.8%)” for “32.6%)”; format: functional
Fusarium verticillioides [18] = test: as §1, with “JS06” for “JS09”, “8.33” for “12.5”, “25.2%)” for “32.6%)”; format: functional
Fusarium verticillioides [19] = test: as §1, with “N04” for “JS09”, “8.33” for “12.5”, “14.5%)” for “32.6%)”; format: functional
Fusarium verticillioides [20] = test: as §1, with “N02” for “JS09”, “8.33” for “12.5”, “41.2%)” for “32.6%)”; format: functional
Fusarium verticillioides [21] = test: as §1, with “YZ13” for “JS09”, “8.33” for “12.5”, “26.8%)” for “32.6%)”; format: functional
Fusarium verticillioides [22] = test: as §1, with “YZ11” for “JS09”, “33.7%)” for “32.6%)”; format: functional
Fusarium verticillioides [23] = test: as §1, with “YZ10” for “JS09”, “49.2%)” for “32.6%)”; format: functional
Fusarium verticillioides [24] = test: as §1, with “YZ08” for “JS09”, “19.8%)” for “32.6%)”; format: functional
Fusarium verticillioides [25] = test: as §1, with “YZ06” for “JS09”, “45.3%)” for “32.6%)”; format: functional
Fusarium verticillioides [26] = test: as §1, with “YZ04” for “JS09”, “44.2%)” for “32.6%)”; format: functional
Fusarium verticillioides [27] = test: as §1, with “YZ03” for “JS09”, “21.3%)” for “32.6%)”; format: functional
Fusarium verticillioides [28] = test: as §1, with “YZ02” for “JS09”, “29.8%)” for “32.6%)”; format: functional
Fusarium verticillioides [29] = test: as §1, with “YZ01” for “JS09”, “25” for “12.5”, “33.6%)” for “32.6%)”; format: functional
Fusarium verticillioides [30] = test: Fungicidal activity against Fusarium verticilliodes assessed as mycelial growth inhibition at 25 degC after 3 to 5 days; format: functional, organism-based
Fusarium verticillioides [31] = test: as §1, with “YZ10” for “JS09”, “8.33” for “12.5”, “49.2%)” for “32.6%)”; format: functional
Fusarium verticillioides [32] = test: as §1, with “JS03” for “JS09”, “6.25” for “12.5”, “15.8%)” for “32.6%)”; format: functional

CCOC(=O)/C(C#N)=C(/N)c1ccccc1
Activity (Fusarium verticillioides [1]): 0%
Activity (Fusarium verticillioides [2]): 0%
Activity (Fusarium verticillioides [3]): 0%
Activity (Fusarium verticillioides [4]): 4.2%
Activity (Fusarium verticillioides [5]): 3.6%
Activity (Fusarium verticillioides [6]): 2.2%
Activity (Fusarium verticillioides [7]): 0.8%
Activity (Fusarium verticillioides [8]): 3.2%
Activity (Fusarium verticillioides [9]): 0.5%
Activity (Fusarium verticillioides [10]): 2%
Activity (Fusarium verticillioides [11]): 0%
Activity (Fusarium verticillioides [12]): 0%
Activity (Fusarium verticillioides [13]): 0%
Activity (Fusarium verticillioides [14]): 0%
Activity (Fusarium verticillioides [15]): 0%
Activity (Fusarium verticillioides [16]): 0%
Activity (Fusarium verticillioides [17]): 0%
Activity (Fusarium verticillioides [18]): 0%
Activity (Fusarium verticillioides [19]): 0%
Activity (Fusarium verticillioides [20]): 0%
Activity (Fusarium verticillioides [21]): 0%
Activity (Fusarium verticillioides [22]): 0%
Activity (Fusarium verticillioides [23]): 0%
Activity (Fusarium verticillioides [24]): 0%
Activity (Fusarium verticillioides [25]): 0%
Activity (Fusarium verticillioides [26]): 0%
Activity (Fusarium verticillioides [27]): 0%
Activity (Fusarium verticillioides [28]): 0%
Activity (Fusarium verticillioides [29]): 0%
EC50 (Fusarium verticillioides [30]): 0.316 µg/mL (≈ 1.46 µM)
Activity (Fusarium verticillioides [31]): 0%
Activity (Fusarium verticillioides [32]): 1.4%
